Source: patent US20090305955A1, “Cyclopeptide with Anti-Cancer Activity Derived from Collagen Type IV” (priority 2006, published 2009)
Where a SMILES comes first, the peptide text is derived from it.

System: PAI-1
Assay: Western blot of PAI-1 secretion, UACC-903 cells
Type: cell-based, human
Conditions: cyclopeptide 5 to 20 μM
Experimental: FIG. 15: Effect of YSNSG (SEQ ID NO: 3) cyclopeptide on secretion of PAI-1 (plasminogen activator inhibitor-1). The secretion of PAI-1 was analyzed by Western Blot (A) in a medium conditioned by UACC-903 cells control in the absence of peptide (negative control, white bar), in cells treated with linear heptapeptide CNYYSNS (SEQ ID NO: 5) (20 μM) (positive control, black bar) or treated with YSNSG (SEQ ID NO: 3) cyclopeptide at a concentration from 5 μM to 20 μM (grey bars). The conditioned medium was recovered, concentrated and analyzed as described in the methods.
The samples underwent 10% polyacrylamide gel electrophoresis in the presence of 0.1% SDS then were transferred onto Immobilon-P membranes (Millipore, St Quentin en Yvelines, France). The membranes were saturated with 5% freeze dried skimmed milk, Tween 20 0.1% in a 50 mM Tris-HCl, 150 mM NaCl buffer, pH 7.5 (TBS) for 2 hours at ambient temperature. The membranes were then incubated overnight at 4° C. with anti-MMP-14, anti-PAI-1 and anti-u-PAR antibodies then incubated for one hour at ambient temperature with a secondary antibody (anti-IgG) conjugated with peroxidase. The immune complexes were visualized with an ECL chemoluminescence detection kit.

NC(=O)CC1NC(=O)C(CO)NC(=O)C(Cc2ccc(O)cc2)NC(=O)CNC(=O)C(CO)NC1=O (stereo not shown) [cyclopeptide YSNSG, cyclopeptide YSNSG (SEQ ID NO: 3)] (cyclo(GYSNS); configuration not given here)
secretion of PAI-1: large increase
